Entries after “also recorded” stand apart in the source; their conditions may differ.
Assays:
TGFβ1/p38 pathway = assay: Immunoblotting of p-p38 in HDFs; type: cell-based, human; settings: high glucose
Procedure: For in vitro tests, protein lysates were collected from HDFs. Pre-cooled cell scrapers were used to detach the cells, and the cells were re-suspended in RIPA lysis buffer with the inhibitor cocktail. For in vivo tests, wound skin tissues were washed three times with pre-cooled DPBS, dissected into small pieces, and re-suspended in RIPA lysis buffer containing protease and phosphatase inhibitors. Homogenization was then performed thereafter with an ultrasonic processor (Cole Parmer). After centrifugation at 12,000 g for 20 min, the supernatants were collected, and protein concentrations were measured using a Bradford protein assay kit (Bio-rad).
The protein samples were separated by 10% Mini-PROTEAN TGX stain-free precast gels (Bio-rad) and transferred onto an immune-blot PVDF membrane. The blots were washed three times with DPBS containing 0.1% Tween 20 (PBST), blocked with 5% milk powder in PBST buffer for 40 min, and incubated with primary antibodies at specific dilutions overnight at 4° C. The primary antibodies included rabbit GAPDH antibody (1:5000, Cell signaling), rabbit anti-a-smooth muscle actin (α-SMA) antibody (1:2000, Cell signaling), rabbit anti-phospho-Smad2(Ser465/467)/Smad3 (Ser423/425) (1:500, Cell signaling), and rabbit anti-phospho-p38 (1:500, Cell signaling). The membranes were washed three times with PBST and incubated with horseradish peroxidase (HRP)-conjugated secondary antibodies (1:2500). Immunoblots were then washed with PBST and detected with a WesternBright HRP substrate detection kit (Advansta). The ChemiDoc XPS+system (Bio-rad) was used to image the blots.

HDF, HaCaT, HAECs, BMM = assay: Example 4 in vitro survival, migration, cytokine and growth factor secretion with TGF-beta I and high glucose; type: cell-based, human, mouse
Excerpt: Human dermal fibroblasts (HDF), human skin keratinocytes (HaCaT), human artery endothelial cells (HAECs), and mouse bone marrow-derived macrophages (BMM) were used to test the in vitro survival, migration, secretion of inflammatory cytokines, and angiogenic growth factors in the presence of TGF-beta I and high glucose content.
FIG. 4B is a Western blot of p38 and GAPDH (control) expression for dermal fibroblasts under high glucose levels. Untreated cells (control) were compared with cells exposed to 10 ng/ml of TGFβ with ECG treatments of 0 μg/mL, 10 μg/mL, and 1 μg/mL.

[1] = In vitro release of peptide from hydrogel; type: physicochemical; settings: loadings 10, 20, 50 μg/mL; three weeks
Procedure: To characterize the ECG release properties of the NIPAAm-based hydrogels disclosed herein, the following experiments were conducted. Hydrogel samples were synthesized with varying levels of ECG loading: 10 μg/mL, 20 μg/mL, and 50 μg/mL. The cumulative release of ECG from the hydrogel samples was assessed over a three-week period.
Wound dressings were fabricated by encapsulating PTβR2I in the hydrogel solution at 4° C. Briefly, PTβR2I solution was mixed with 6 wt. % hydrogel solution to reach final PTβR2I concentrations of 10 μg/mL, 20 μg/mL and 50 μg/mL. The mixtures were stirred at 4° C. for 12 hours. To determine PTβR2I release kinetics, the mixtures were first incubated at 37° C. to gel. After 1 hour, the supernatant was replaced by a release medium (DPBS with 1% P/S). The medium was then collected at pre-determined time points for 21 days, and a fresh release medium was added after each collection. The concentration of the released PTβR2I was determined by measuring the fluorescence intensity and calculating the corresponding concentration using a standard curve. The bioactivity of the released PTβR2I was evaluated by its ability to bind to the TβR2 on the HDFs. […] After 2 hours of incubation, the cells were washed three times with DPBS, and the fluorescence intensity was measured using a microplate reader (excitation/emission=485/535 nm).

[2] = test system: dermal wounds of db/db mice; assay: Example 3 dermal wound closure, subcutaneous ECG/gel; type: in vivo
Procedure: db/db (Diabetic, […]) mice were used as an animal wound model. Dermal wounds were created using sterile 5 mm biopsy punches to expose the underlying muscle fascia, followed by subcutaneous injection of either control gel (6 wt %) or ECG/gel (50 μg/mL ECG in 6 wt % gel). In addition, a subgroup of the dermally-wounded mice was left untreated as controls. The dermal wounds of all mice were observed every other day until recovery using a digital camera to record successive images as well as measuring wound size using digital calipers. Image analysis using ImageJ was also performed to do a blind measurement of wound size. Subgroups of the mice were sacrificed at three different time points: day 3, day 8, and day 16. Skin samples were collected from the sacrificed mice for histology, immunohistochemistry analysis, and Western blot studies.

## Oc1ccc(-c2nc(-c3ccncc3)c(-c3ccc(F)cc3)[nH]2)cc1 [SB202190, reference compound]
TGFβ1/p38 pathway; with TGFβ1
  p-p38 expression: notably downregulated

## ECGLLPVGRPDRVWRLCK
HDF, HaCaT, HAECs, BMM; presence of TGF-beta I
  survival and migration of keratinocytes, fibroblasts, and endothelial cells: improved
HDF, HaCaT, HAECs, BMM; various cell types
  angiogenic growth factor secretions: promoted
  pro-inflammatory cytokines expression: suppressed
[1]
  duration of initial rapid release of ECG from hydrogel: 3 to 4 days
[2]; Western blot vs control gel
  p38 expression in wound tissues: suppressed; also recorded: downregulated
[2]; day 8
  increase of blood vessel density and mature blood vessel density vs control: up to 4 fold

## TGFβ1: growth factor used as stimulus, 10 ng/ml
TGFβ1/p38 pathway
  increase in baseline phosphorylation of p38 relative to no TGFβ1 group: ~4 fold
